Data: patent publication US8841233B2, “Herbicidal compositions comprising 4-amino-3-chloro-5-fluoro-6-(4-chloro-2-fluoro-3-methoxyphenyl) pyridine-2-carboxylic acid or a derivative thereof and 4-hydroxyphenyl-pyruvate dioxygenase (HPPD) inhibitors” (Dow Agrosciences LLC, priority 2012, dated 2014)
Several values for one entry are separate records, joined by “and”; a condition that tells them apart may be missing. Equal values may be shown once.

Columns and labels:
BRAPP = assay: Post-emergence foliar-applied weed control, greenhouse (Example I); assay type: in vivo
Text: Evaluation of Post-emergence Foliar-Applied Herbicidal Mixtures for Weed Control in Direct Seeded Rice
Seeds or nutlets of the desired test plant species were planted in a soil matrix prepared by mixing a loam or sandy loam soil (e.g., 28.6 percent silt, 18.8 percent clay, and 52.6 percent sand, with a pH of about 5.8 and an organic matter content of about 1.8 percent) and calcareous grit in an 80 to 20 ratio. The soil matrix was contained in plastic pots with a volume of 1 quart and a surface area of 83.6 square centimeters (cm^2). When required to ensure good germination and healthy plants, a fungicide treatment and/or other chemical or physical treatment was applied. The plants were grown for 8-22 days in a greenhouse with an approximate 14 h photoperiod which was maintained at about 29° C. during the day and 26° C. during the night. Nutrients (Peters Excel® 15-5-15 5-Ca 2-Mg and iron chelate) were applied in the irrigation solution as needed and water was added on a regular basis. Supplemental lighting was provided with overhead metal halide 1000-Watt lamps as necessary. The plants were employed for testing when they reached the first through fourth true leaf stage.
(§1) Treatments consisted of the acid or esters of 4-amino-3-chloro-5-fluoro-6-(4-chloro-2-fluoro-3-methoxy-phenyl)pyridine-2-carboxylic acid (Compound A), each formulated as an SC (suspension concentrate), and various herbicidal components alone and in combination. Forms of Compound A were applied on an acid equivalent basis.
(§2) Other herbicidal components were applied on an active ingredient basis and included 4-hydroxyphenyl pyruvate dioxygenase (HPPD)-inhibiting herbicides mesotrione formulated as Callisto®, sulcotrione formulated as Mikado®, pyrazolynate formulated as Sunbird® 10% GR, and benzobicyclon formulated as Benzobicyclon 3.5%.
Treatment requirements were calculated based upon the rates being tested, the concentration of active ingredient or acid equivalent in the formulation, and a 12 mL application volume at a rate of 187 L/ha.
For treatments comprised of formulated compounds, measured amounts of compounds were placed individually in 25 mL glass vials and diluted in a volume of 1.25% (v/v) Agri-Dex® crop oil concentrated to obtain 12× stock solutions. […] Application solutions were prepared by adding an appropriate amount of each stock solution (e.g., 1 mL) and diluted to the appropriate final concentrations with the addition of 10 mL of an aqueous mixture of 1.25% (v/v) crop oil concentrate so that the final spray solutions contained 1.25+/−0.05% (v/v) crop oil concentrate.
For treatments comprised of formulated and technical compounds, weighed amounts of the technical materials were placed individually in 25 mL glass vials and dissolved in a volume of 97:3 v/v acetone/DMSO to obtain 12× stock solutions, and measured amounts of the formulated compounds were placed individually in 25 mL glass vials and diluted in a volume of 1.5% (v/v) crop oil concentrate or water to obtain 12× stock solutions. […] Application solutions were prepared by adding an appropriate amount of each stock solution (e.g., 1 mL) and diluted to the appropriate final concentrations with the addition of an appropriate amount of an aqueous mixture of 1.5% (v/v) crop oil concentrate so that the final spray solutions contained 1.25% (v/v) crop oil concentrate. As required, additional water and/or 97:3 v/v acetone/DMSO was added to individual application solutions so that the final acetone and DMSO concentrations of the application solutions being compared were 8.1% and 0.25%, respectively.
All stock solutions and applications solutions were visually inspected for compound compatibility prior to application. Spray solutions were applied to the plant material with an overhead Mandel track sprayer equipped with a 8002E nozzles calibrated to deliver 187 L/ha over an application area of 0.503 m^2 at a spray height of 18 to 20 inches (46 to 50 cm) above average plant canopy height. […]

ECHCG = assay: In-water applied weed control, transplanted paddy rice, greenhouse (Example II); assay type: in vivo, Echinochloa crusgalli (L.) Beauv.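 For Visual Weed Control (%) - 20 DAA ECHCG Obs: visual score 0 no injury to 100 complete kill versus untreated plants.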
Procedure: Evaluation of in-Water Applied Herbicidal Mixtures for Weed Control in Transplanted Paddy Rice
Weed seeds or nutlets of the desired test plant species were planted in puddled soil (mud) prepared by mixing a shredded, non-sterilized mineral soil (50.5 percent silt, 25.5 percent clay, and 24 percent sand, with a pH of about 7.6 and an organic matter content of about 2.9 percent) and water at a 1:1 volumetric ratio. The prepared mud was dispensed in 365 mL aliquots into 16-ounce (oz.) non-perforated plastic pots with a surface area of 86.59 square centimeters (cm^2) leaving a headspace of 3 centimeters (cm) in each pot. Mud was allowed to dry overnight prior to planting or transplanting. Rice seeds were planted in Sun Gro MetroMix® 306 planting mixture, which typically has a pH of 6.0 to 6.8 and an organic matter content of about 30 percent, in plastic plug trays. Seedlings at the second or third leaf stage of growth were transplanted into 840 mL of mud contained in 32-oz. non-perforated plastic pots with a surface area of 86.59 cm^2 4 days prior to herbicide application. The paddy was created by filling the headspace of the pots with 2.5 to 3 cm of water. When required to ensure good germination and healthy plants, a fungicide treatment and/or other chemical or physical treatment was applied. The plants were grown for 4-22 days in a greenhouse with an approximate 14 h photoperiod which was maintained at about 29′C during the day and 26° C. during the night. Nutrients were added as Osmocote® (19:6:12, N:P:K+ minor nutrients) at 2 g per 16-oz. pot and 4 g per 32-oz. pot. Water was added on a regular basis to maintain the paddy flood, and supplemental lighting was provided with overhead metal halide 1000-Watt lamps as necessary. The plants were employed for testing when they reached the first through fourth true leaf stage.
as §1, with “(compound A)” for “(Compound A),”, “concentrate)” for “concentrate),”, “compound” for “Compound”
as §2, with “3.5% or technical material.” for “3.5%.”
Treatment requirements for each compound or herbicidal component were calculated based upon the rates being tested, the concentration of active ingredient or acid equivalent in the formulation, an application volume of 2 mL per component per pot, and an application area of 86.59 cm^2 per pot.
For formulated compounds, a measured amount was placed in an individual 100 or 200 mL glass vial and was dissolved in a volume of 1.25% (v/v) Agri-Dex® crop oil concentrate to obtain application solutions.
For technical grade compounds, a weighed amount was placed in an individual 100 to 200 mL glass vial and was dissolved in a volume of acetone to obtain concentrated stock solutions. […] The concentrated stock solutions obtained were diluted with an equivalent volume of an aqueous mixture containing 2.5% (v/v) crop oil concentrate so that the final application solutions contained 1.25% (v/v) crop oil concentrate.
Applications were made by injecting with a pipetter appropriate amounts of the application solutions, individually and sequentially, into the aqueous layer of the paddy. Control plants were treated in the same manner with the solvent blank. Applications were made so that all treated plant material received the same concentrations of acetone and crop oil concentrate.
The treated plants and control plants were placed in a greenhouse as described above and water was added as needed to maintain a paddy flood. […]

Structure (SMILES)	Visual Weed Control (%) - 20 DAA BRAPP Obs (BRAPP; 8.75 gae/ha)	Visual Weed Control (%) - 20 DAA BRAPP Obs (BRAPP; 17.5 gae/ha) [%]	Visual Weed Control (%) - 21 DAA ECHCG Obs (ECHCG; 8.75 gae/ha) [%]	Visual Weed Control (%) - 20 DAA ECHCG Obs (ECHCG; 17.5 gae/ha)	Visual Weed Control (%) - 21 DAA ECHCG Obs (ECHCG; 17.5 gae/ha) [%]	Visual Weed Control (%) - 20 DAA ECHCG Obs (ECHCG; 35 gae/ha) [%]	Visual Weed Control (%) - 20 DAA BRAPP Obs (BRAPP; 4.38 gae/ha) [%]	Visual Weed Control (%) - 22 DAA ECHCG Obs (ECHCG; 8.75 gae/ha) [%]	Visual Weed Control (%) - 22 DAA ECHCG Obs (ECHCG; 17.5 gae/ha) [%]
COc1c(Cl)ccc(-c2nc(C(=O)O)c(Cl)c(N)c2F)c1F [Compound A Acid, 4-amino-3-chloro-6-(4-chloro-2-fluoro-3-methoxyphenyl)-5-fluoropyridine-2-carboxylic acid]	60% and 80%	85	20	35% and 30%	30	55	–	–	–
COc1c(Cl)ccc(-c2nc(C(=O)OCc3ccccc3)c(Cl)c(N)c2F)c1F [Compound A Benzyl Ester, benzyl ester of 4-amino-3-chloro-5-fluoro-6-(4-chloro-2-fluoro-3-methoxy-phenyl)pyridine-2-carboxylic acid]	70%	–	–	–	–	–	50	45	90
